Data: patent publication US20230295197A1, “STAT5 and STAT6 Degraders and Uses Thereof” (REGENTS OF THE UNIVERSITY OF MICHICAN, priority 2022, published 2023)
Like-named read-outs stand apart in the source and are kept apart here.

Biological target: T1, STAT6 (Homo sapiens, UniProt P42226)
T1 construct: endogenous in cells; host or cells: MOLM-16, KU-812, SKNO1, MB231, L1236
T1 sequence (P42226 1-847): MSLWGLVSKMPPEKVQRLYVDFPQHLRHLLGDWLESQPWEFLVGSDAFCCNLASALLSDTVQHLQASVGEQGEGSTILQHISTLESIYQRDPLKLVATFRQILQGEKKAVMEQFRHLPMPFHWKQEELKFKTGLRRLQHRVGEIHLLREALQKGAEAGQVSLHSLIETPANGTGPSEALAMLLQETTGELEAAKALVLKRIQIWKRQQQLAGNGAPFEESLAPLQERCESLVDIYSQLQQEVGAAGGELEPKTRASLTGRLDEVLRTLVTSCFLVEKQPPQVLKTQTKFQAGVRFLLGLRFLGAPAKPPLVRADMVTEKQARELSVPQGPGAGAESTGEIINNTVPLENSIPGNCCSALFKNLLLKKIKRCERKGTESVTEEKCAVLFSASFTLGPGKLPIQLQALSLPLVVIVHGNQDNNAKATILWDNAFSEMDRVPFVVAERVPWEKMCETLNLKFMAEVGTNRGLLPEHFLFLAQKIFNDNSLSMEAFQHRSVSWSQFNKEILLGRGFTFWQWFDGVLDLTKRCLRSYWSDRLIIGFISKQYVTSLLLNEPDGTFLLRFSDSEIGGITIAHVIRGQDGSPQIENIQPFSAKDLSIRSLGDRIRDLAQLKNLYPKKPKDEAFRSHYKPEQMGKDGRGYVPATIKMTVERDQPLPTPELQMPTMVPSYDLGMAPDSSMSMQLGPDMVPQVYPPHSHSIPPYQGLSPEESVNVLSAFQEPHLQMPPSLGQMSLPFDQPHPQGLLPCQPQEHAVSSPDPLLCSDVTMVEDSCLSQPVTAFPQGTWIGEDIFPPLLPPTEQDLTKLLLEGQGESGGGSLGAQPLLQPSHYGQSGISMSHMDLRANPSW
Assay: Immunoblotting (Western blot) analysis of STAT6 degradation efficiency of degraders in treated cells
Assay type: cell-based
Method in brief: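 Degradation read by quantitative near-infrared Western blot: equal protein loads (20-40 μg) from compound-treated versus untreated cells, probed overnight at 4° C. for STAT5 or STAT6 with GAPDH reference. Compound concentrations and exposure times as indicated; cells grown in medium with 10% FBS at 37° C.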

[1] = L1236 cells, read-out: DC50 S6 L1236
[2] = MB231 cells, read-out: DC50 S6 MB231
[3] = MOLM-16 cells, class symbols, read-out: DC50 S6 MOLM-16

DC50 [3] [µM]	SMILES	DC50 [1] [µM]	DC50 [2] [µM]
	Cc1ncsc1-c1ccc(CNC(=O)[C@@H]2C[C@@H](O)CN2C(=O)[C@@H](NC(=O)CCCCNC(=O)CO[C@@H]2C[C@@H](C(=O)N(C)c3ccc(Br)cc3)N(C(=O)[C@@H](NC(=O)c3cc4cc(C(F)(F)P(=O)(O)O)ccc4s3)C(C)(C)C)C2)C(C)(C)C)cc1 [Compound 416, ((2-(((S)-1-((2S,4R)-2-((4-bromophenyl)(methyl)carbamoyl)-4-(2-((5-(((S)-1-((2S,4R)-4-hydroxy-2-((4-(4-methylthiazol-5-yl)benzyl)carbamoyl)pyrrolidin-1-yl)-3,3-dimethyl-1-oxobutan-2-yl)amino)-5-oxopentyl)amino)-2-oxoethoxy)pyrrolidin-1-yl)-3,3-dimethyl-1-oxobutan-2-yl)carbamoyl)benzo[b]thiophen-5-yl)difluoromethyl)phosphonic acid]	> 10	> 10
> 10	CC(C)(C)[C@H](NC(=O)c1cc2cc(C(F)(F)P(=O)(O)O)ccc2s1)C(=O)N1C[C@@H](OCC(=O)NCCCCC#Cc2ccc3c(c2)C(=O)N(C2CCC(=O)NC2=O)C3=O)C[C@H]1C(=O)N1CCO[C@H](c2ccccc2)C1 (stereo partly drawn) [Compound 486, ((2-(((2S)-1-((2S,4S)-4-(2-((6-(2-(2,6-dioxopiperidin-3-yl)-1,3-dioxoisoindolin-5-yl)hex-5-yn-1-yl)amino)-2-oxoethoxy)-2-((R)-2-phenylmorpholine-4-carbonyl)pyrrolidin-1-yl)-3,3-dimethyl-1-oxobutan-2-yl)carbamoyl)benzo[b]thiophen-5-yl)difluoromethyl)phosphonic acid]		
> 10	CC(C)(C)[C@H](NC(=O)c1cc2cc(C(F)(F)P(=O)(O)O)ccc2s1)C(=O)N1C[C@@H](OCC(=O)NCCC#Cc2ccc3c(c2)C(=O)N(C2CCC(=O)NC2=O)C3=O)C[C@H]1C(=O)N1CCC[C@H](c2ccccc2)C1 (stereo partly drawn) [Compound 496, ((2-(((2S)-1-((2S,4S)-4-(2-((4-(2-(2,6-dioxopiperidin-3-yl)-1,3-dioxoisoindolin-5-yl)but-3-yn-1-yl)amino)-2-oxoethoxy)-2-((R)-3-phenylpiperidine-1-carbonyl)pyrrolidin-1-yl)-3,3-dimethyl-1-oxobutan-2-yl)carbamoyl)benzo[b]thiophen-5-yl)difluoromethyl)phosphonic acid]		
< 0.1	CC(C)(C)[C@H](NC(=O)c1cc2cc(C(F)(F)P(=O)(O)O)ccc2s1)C(=O)N1C[C@@H](OCCCCCCCC#Cc2cccc3c2CN(C2CCC(=O)NC2=O)C3=O)C[C@H]1C(=O)N1CCO[C@H](c2ccccc2)C1 (stereo partly drawn) [Compound 595, ((2-(((2S)-1-((2S,4S)-4-((9-(2-(2,6-dioxopiperidin-3-yl)-1-oxoisoindolin-4-yl)non-8-yn-1-yl)oxy)-2-((R)-2-phenylmorpholine-4-carbonyl)pyrrolidin-1-yl)-3,3-dimethyl-1-oxobutan-2-yl)carbamoyl)benzo[b]thiophen-5-yl)difluoromethyl)phosphonic acid]		
> 10	O=C1CCC(N2Cc3c(C#CCCCCCC(=O)N4CC[C@H]5CC[C@@H](C(=O)N6CCOC(c7ccc(F)c(Cl)c7)C6)N5C(=O)[C@@H](NC(=O)c5cc6cc(C(F)(F)P(=O)(O)O)ccc6s5)C4)cccc3C2=O)C(=O)N1 (stereo partly drawn) [Compound 564, ((2-(((5S,8S,10aR)-8-(2-(3-chloro-4-fluorophenyl)morpholine-4-carbonyl)-3-(8-(2-(2,6-dioxopiperidin-3-yl)-1-oxoisoindolin-4-yl)oct-7-ynoyl)-6-oxodecahydropyrrolo[1,2-a][1,5]diazocin-5-yl)carbamoyl)benzo[b]thiophen-5-yl)difluoromethyl)phosphonic acid]	> 10	
	Cc1ncsc1-c1ccc(CNC(=O)[C@@H]2C[C@@H](O)CN2C(=O)[C@@H](NC(=O)CCCCCCCCNC(=O)CO[C@@H]2C[C@@H](C(=O)N(C)c3ccc(Br)cc3)N(C(=O)[C@@H](NC(=O)c3cc4cc(C(F)(F)P(=O)(O)O)ccc4s3)C(C)(C)C)C2)C(C)(C)C)cc1 [Compound 420, ((2-(((S)-1-((2S,4R)-2-((4-bromophenyl)(methyl)carbamoyl)-4-(2-((9-(((S)-1-((2S,4R)-4-hydroxy-2-((4-(4-methylthiazol-5-yl)benzyl)carbamoyl)pyrrolidin-1-yl)-3,3-dimethyl-1-oxobutan-2-yl)amino)-9-oxononyl)amino)-2-oxoethoxy)pyrrolidin-1-yl)-3,3-dimethyl-1-oxobutan-2-yl)carbamoyl)benzo[b]thiophen-5-yl)difluoromethyl)phosphonic acid]	> 10	> 10
0.1 to 1	CC(C)(C)[C@H](NC(=O)c1cc2cc(C(F)(F)P(=O)(O)O)ccc2s1)C(=O)N1C[C@@H](OCCCCCCCCCC#Cc2cccc3c2CN(C2CCC(=O)NC2=O)C3=O)C[C@H]1C(=O)N1CCO[C@H](c2ccccc2)C1 (stereo partly drawn) [Compound 584, ((2-(((2S)-1-((2S,4S)-4-((11-(2-(2,6-dioxopiperidin-3-yl)-1-oxoisoindolin-4-yl)undec-10-yn-1-yl)oxy)-2-((R)-2-phenylmorpholine-4-carbonyl)pyrrolidin-1-yl)-3,3-dimethyl-1-oxobutan-2-yl)carbamoyl)benzo[b]thiophen-5-yl)difluoromethyl)phosphonic acid]	> 10	

SMILES	DC50 [3] [µM]	DC50 [1] [µM]	DC50 [2] [µM]
Cc1ncsc1-c1ccc([C@H](C)NC(=O)[C@@H]2C[C@@H](O)CN2C(=O)[C@@H](NC(=O)CNC(=O)COc2ccc3c(c2)CN(C(=O)[C@@H](NC(=O)c2cc4cc(C(F)(F)P(=O)(O)O)ccc4s2)C(C)(C)C)[C@H](C(=O)N2CCC[C@H](c4ccccc4)C2)C3)C(C)(C)C)cc1 [Compound 470, (difluoro(2-(((S)-1-((S)-7-(2-((2-(((S)-1-((2S,4R)-4-hydroxy-2-(((S)-1-(4-(4-methylthiazol-5-yl)phenyl)ethyl)carbamoyl)pyrrolidin-1-yl)-3,3-dimethyl-1-oxobutan-2-yl)amino)-2-oxoethyl)amino)-2-oxoethoxy)-3-((R)-3-phenylpiperidine-1-carbonyl)-3,4-dihydroisoquinolin-2(1H)-yl)-3,3-dimethyl-1-oxobutan-2-yl)carbamoyl)benzo[b]thiophen-5-yl)methyl)phosphonic acid]	> 10		
Cc1ncsc1-c1ccc([C@H](C)NC(=O)[C@@H]2C[C@@H](O)CN2C(=O)[C@@H](NC(=O)CCCCCCNC(=O)COc2ccc3c(c2)CN(C(=O)[C@@H](NC(=O)c2cc4cc(C(F)(F)P(=O)(O)O)ccc4s2)C(C)(C)C)[C@H](C(=O)N2CCO[C@H](c4ccccc4)C2)C3)C(C)(C)C)cc1 [Compound 466, (difluoro(2-(((S)-1-((S)-7-(2-((7-(((S)-1-((2S,4R)-4-hydroxy-2-(((S)-1-(4-(4-methylthiazol-5-yl)phenyl)ethyl)carbamoyl)pyrrolidin-1-yl)-3,3-dimethyl-1-oxobutan-2-yl)amino)-7-oxoheptyl)amino)-2-oxoethoxy)-3-((R)-2-phenylmorpholine-4-carbonyl)-3,4-dihydroisoquinolin-2(1H)-yl)-3,3-dimethyl-1-oxobutan-2-yl)carbamoyl)benzo[b]thiophen-5-yl)methyl)phosphonic acid]	> 10	> 10	
